One data set has as its system Streptococcus pneumoniae. Kind of data set: Antimicrobial activity against Streptococcus pneumoniae ATCC 49619 assessed as growth inhibition measured after 8 hrs incubation by standard broth dilution assay. It counts as functional. For orientation: Broth dilution looks for growth in wells or tubes with falling amounts of substance.
The next data set concerns Staphylococcus aureus. Briefly: Antimicrobial activity against methicillin-resistant Staphylococcus aureus ATCC 43300 assessed as growth inhibition measured after 8 hrs incubation by standard broth dilution assay. It counts as functional.
Data set [1] can be described thus: Hemolytic activity in BALB/c mouse red blood cells assessed as hemolysis incubated for 1 hrs. Particulars: read-out: HD50. The data set is classed as toxicity, cell-based, Erythrocyte.
In a further data set the test system is Pseudomonas aeruginosa. Kind of data set: Antimicrobial activity against Pseudomonas aeruginosa ATCC 27853 assessed as growth inhibition measured after 8 hrs incubation by standard broth dilution assay. The data set is classed as functional.
In a further data set the test system is Klebsiella pneumoniae. Briefly: Antimicrobial activity against Klebsiella pneumoniae ATCC 13883 assessed as growth inhibition measured after 8 hrs incubation by standard broth dilution assay. The data set is classed as functional.

Results on six compounds are retold here after ChEMBL document CHEMBL6153110, “Peptide Double-Stapling and Arginine N-Glycosylation Triggered the Development of Therapeutic Antimicrobial Peptides Capable of Killing Drug-Resistant Bacteria in Mice” (J Med Chem, 2025).

Each structure is given as a SMILES string. Values after ≈ are worked out from the molar mass of the structure shown. Starred links: 1 amine or outer side, 2 acyl side, 3 side chain; linkers in the order of their positions; H or OH if unused. Positions of bridges follow the written chain, without caps; N, C: chain ends. Non-standard residues stand in square brackets, D forms with d. Residues, ends and D or L forms follow the SMILES beside them. ξ: configuration not given here. X2 = CC(=O)N[C@@H]1[C@@H](O)[C@H](O)[C@@H](CO)O[C@H]1NC(=N)NCCC[C@H](N[*:1])C(=O)[*:2]; ξαMeNle(6-ylidene) = CC(CCCC=[*:3])(N[*:1])C(=O)[*:2]; R8 = C=CCCCCCC[C@@](C)(N)C(=O)O; S5 = C=CCCC[C@](C)(N)C(=O)O; ξV = CC(C)C(N)C(=O)O

A word on the MIC: it is the lowest concentration that inhibits growth of the organism.

In the case of `CC(=O)N[C@@H]1[C@@H](O)[C@H](O)[C@@H](CO)O[C@H]1NC(=N)NCCC[C@H](NC(=O)[C@@H](NC(=O)[C@@H]1CCCN1C(=O)[C@H](CCCCN)NC(=O)[C@H](CCCCN)NC(=O)[C@H](CC(C)C)NC(=O)[C@]1(C)CCC/C=C\CCC[C@](C)(NC(=O)[C@H](CCCCN)NC(=O)[C@]2(C)CCC/C=C\CCC[C@](C)(NC(=O)[C@H](CCCNC(=N)N)NC(=O)[C@H](CCCCN)NC(=O)[C@H](CCCCN)NC(=O)[C@@H](NC(=O)[C@H](CCCNC(=N)N)NC(=O)[C@H](CCCCN)NC(=O)[C@H](CCCCN)NC(C)=O)C(C)C)C(=O)N[C@@H](Cc3ccccc3)C(=O)N[C@@H](CCCCN)C(=O)N[C@@H](CC(C)C)C(=O)N2)C(=O)N[C@@H](Cc2ccc(O)cc2)C(=O)N[C@@H](Cc2c[nH]c3ccccc23)C(=O)N[C@@H](CCCNC(=N)N)C(=O)N1)C(C)C)C(N)=O` (Ac-KKRVKKR[S5]FKL[S5]K[S5]YWR[S5]LKKPV[X2]-NH2; staple (Z) 8-12, 14-18), the MIC in the data set with Streptococcus pneumoniae was 2.4 µg/mL (≈ 0.699 µM); in the data set on Staphylococcus aureus, 2.5 µg/mL (≈ 0.729 µM); in the data set on Pseudomonas aeruginosa, 2.6 µg/mL (≈ 0.758 µM); with Klebsiella pneumoniae, 2.5 µg/mL (≈ 0.729 µM). Moreover, in data set [1], the HC50 at 1 h was found to be 82.2 µg/mL.
Turning to `CC(=O)N[C@@H](CCCCN)C(=O)N[C@@H](CCCCN)C(=O)N[C@@H](CCCNC(=N)N)C(=O)N[C@H](C(=O)N[C@@H](Cc1c[nH]c2ccccc12)C(=O)N[C@@H](CCCCN)C(=O)N[C@@H](CCCNC(=N)N)C(=O)N[C@H](C(=O)N[C@@H](Cc1ccccc1)C(=O)N[C@@H](CCCCN)C(=O)N[C@@H](CC(C)C)C(=O)N[C@@H](CC(C)C)C(=O)N[C@@H](CCCCN)C(=O)N[C@@]1(C)CCC/C=C\CCC[C@@](C)(C(=O)N[C@@H](CC(C)C)C(=O)N[C@@H](CCCCN)C(=O)N[C@@H](CCCCN)C(=O)N2CCC[C@H]2C(=O)N[C@H](C(=O)N[C@@H](CCCNC(=N)N)C(N)=O)C(C)C)NC(=O)[C@H](CCCNC(=N)N)NC(=O)[C@H](Cc2c[nH]c3ccccc23)NC(=O)[C@H](Cc2ccc(O)cc2)NC1=O)C(C)C)C(C)C` (Ac-KKRVWKRVFKLLK[S5]YWR[S5]LKKPVR-NH2; staple (Z) 14-18), the MIC amounted to 2.4 µg/mL (≈ 0.739 µM) in the data set on Streptococcus pneumoniae, 4.9 µg/mL (≈ 1.51 µM) in the data set on Staphylococcus aureus, 2.9 µg/mL (≈ 0.893 µM) in the data set on Pseudomonas aeruginosa and 4.9 µg/mL (≈ 1.51 µM) with Klebsiella pneumoniae. The HC50 at 1 h in data set [1] was 19.2 µg/mL.
Turning to `CC(=O)N[C@@H](CCCCN)C(=O)N[C@@H](CCCCN)C(=O)N[C@@H](CCCNC(=N)N)C(=O)N[C@H](C(=O)N[C@@H](Cc1c[nH]c2ccccc12)C(=O)N[C@@H](CCCCN)C(=O)N[C@@H](CCCNC(=N)N)C(=O)N[C@@]1(C)CCC/C=C\CCC[C@@](C)(C(=O)N[C@@H](CCCCN)C(=O)N[C@@]2(C)CCC/C=C\CCC[C@@](C)(C(=O)N[C@@H](CC(C)C)C(=O)N[C@@H](CCCCN)C(=O)N[C@@H](CCCCN)C(=O)N3CCC[C@H]3C(=O)N[C@H](C(=O)N[C@@H](CCCNC(=N)N)C(N)=O)C(C)C)NC(=O)[C@H](CCCNC(=N)N)NC(=O)[C@H](Cc3c[nH]c4ccccc34)NC(=O)[C@H](CCCCN)NC2=O)NC(=O)[C@H](CC(C)C)NC(=O)[C@H](CCCCN)NC(=O)[C@H](Cc2ccccc2)NC1=O)C(C)C` (Ac-KKRVWKR[S5]FKL[S5]K[S5]KWR[S5]LKKPVR-NH2; staple (Z) 8-12, 14-18), the MIC in the data set with Streptococcus pneumoniae was determined as 4.7 µg/mL (≈ 1.45 µM); in the data set with Staphylococcus aureus, 2.5 µg/mL (≈ 0.769 µM); in the data set with Pseudomonas aeruginosa, 2.6 µg/mL (≈ 0.8 µM); in the data set with Klebsiella pneumoniae it was 38 µg/mL (≈ 11.7 µM). The HC50 at 1 h in data set [1] is 88.4 µg/mL.
For `CC(=O)N[C@@H](CCCCN)C(=O)N[C@@H](CCCCN)C(=O)N[C@@H](CCCNC(=N)N)C(=O)N[C@H](C(=O)N[C@@H](Cc1c[nH]c2ccccc12)C(=O)N[C@@H](CCCCN)C(=O)N[C@@H](CCCNC(=N)N)C(=O)N[C@@]1(C)CCC/C=C\CCC[C@@](C)(C(=O)N[C@@H](CCCCN)C(=O)N[C@@]2(C)CCC/C=C\CCC[C@@](C)(C(=O)N[C@@H](CC(C)C)C(=O)N[C@@H](CCCCN)C(=O)N[C@@H](CCCCN)C(=O)N3CCC[C@H]3C(=O)N[C@H](C(=O)N[C@@H](CCCNC(=N)N)C(N)=O)C(C)C)NC(=O)[C@H](CCCNC(=N)N)NC(=O)[C@H](CCCCN)NC(=O)[C@H](Cc3ccc(O)cc3)NC2=O)NC(=O)[C@H](CC(C)C)NC(=O)[C@H](CCCCN)NC(=O)[C@H](Cc2ccccc2)NC1=O)C(C)C` (Ac-KKRVWKR[S5]FKL[S5]K[S5]YKR[S5]LKKPVR-NH2; staple (Z) 8-12, 14-18) the same measures were 4.7 µg/mL (≈ 1.46 µM), 2.5 µg/mL (≈ 0.774 µM), 2.6 µg/mL (≈ 0.805 µM), 2.5 µg/mL (≈ 0.774 µM) and 38.7 µg/mL.
In the same order, the values of `CC(=O)N[C@@H](CCCCN)C(=O)N[C@@H](CCCCN)C(=O)N[C@@H](CCCNC(=N)N)C(=O)N[C@H](C(=O)N[C@@H](Cc1c[nH]c2ccccc12)C(=O)N[C@@H](CCCCN)C(=O)N[C@@H](CCCNC(=N)N)C(=O)N[C@@]1(C)CCC/C=C\CCC[C@@](C)(C(=O)N[C@@H](CCCCN)C(=O)N[C@@]2(C)CCC/C=C\CCC[C@@](C)(C(=O)N[C@@H](CC(C)C)C(=O)N[C@@H](CCCCN)C(=O)N[C@@H](CCCCN)C(=O)N3CCC[C@H]3C(=O)N[C@H](C(=O)N[C@@H](CCCNC(=N)N)C(N)=O)C(C)C)NC(=O)[C@H](CCCNC(=N)N)NC(=O)[C@H](Cc3c[nH]c4ccccc34)NC(=O)[C@H](Cc3ccc(O)cc3)NC2=O)NC(=O)[C@H](CC(C)C)NC(=O)[C@H](CCCCN)NC(=O)[C@H](Cc2ccccc2)NC1=O)C(C)C` (Ac-KKRVWKR[S5]FKL[S5]K[S5]YWR[S5]LKKPVR-NH2; staple (Z) 8-12, 14-18) are 2.4 µg/mL (≈ 0.73 µM), 4.9 µg/mL (≈ 1.49 µM), 5 µg/mL (≈ 1.52 µM), 4.6 µg/mL (≈ 1.4 µM) and 15.3 µg/mL.
For `CC(=O)N[C@@H](CCCCN)C(=O)N[C@@H](CCCCN)C(=O)N[C@@H](CCCNC(=N)N)C(=O)N[C@H](C(=O)N[C@]1(C)CCCCCC/C=C\CCC[C@@](C)(C(=O)N[C@@H](CCCCN)C(=O)N[C@@]2(C)CCC/C=C\CCCC(C)(C(=O)N[C@@H](CC(C)C)C(=O)N[C@@H](CCCCN)C(=O)N[C@@H](CCCCN)C(=O)N3CCC[C@H]3C(=O)N[C@H](C(=O)N[C@@H](CCCNC(=N)N)C(N)=O)C(C)C)NC(=O)[C@H](CCCNC(=N)N)NC(=O)[C@H](Cc3c[nH]c4ccccc34)NC(=O)[C@H](Cc3ccc(O)cc3)NC2=O)NC(=O)[C@H](CC(C)C)NC(=O)[C@H](CCCCN)NC(=O)[C@H](Cc2ccccc2)NC(=O)C(C(C)C)NC(=O)[C@H](CCCNC(=N)N)NC(=O)[C@H](CCCCN)NC1=O)C(C)C` (stereo not given in full) (Ac-KKRV[R8]KR[ξV]FKL[S5]K[S5]YWR[ξαMeNle(6-ylidene)]LKKPVR-NH2; staple (Z) 5-12, 14-18) the same measures were 2.4 µg/mL (≈ 0.74 µM), 4.9 µg/mL (≈ 1.51 µM), 5 µg/mL (≈ 1.54 µM), 4.9 µg/mL (≈ 1.51 µM) and 12.7 µg/mL.
